According to patent US11684607B2, “Secnidazole for use in the treatment of bacterial vaginosis” (priority 2014, dated 2023):

Experiments:
[1] = set-up: species or system human; settings: in vivo
Description: (§1) The study was designed in accordance with FDA guidance for pivotal bacterial vaginosis trials with a primary end point clinical cure in the Modified Intent-to-Treat (mITT) population at day 21 to 30 versus placebo (two-sided test at alpha=0.05). Subjects were recruited to the study they presented with the following Amsel criteria: presence of typical discharge. a positive KOH Whiff test vaginal fluid pH greater than or equal to 4.7, and the presence of “clue cells” (epithelial cells with adhering bacteria) on microscopic examination.

[2] = Safety evaluation of SYM-1219 alone or in combination with EE2/NET; assay type: in vivo, human; settings: 2 g
Experimental: Methods: Fifty-four (54) healthy female subjects, ages 18-65, received EE2/NET alone and in combination, where SYM-1219+EE2/NET were co-administered on Day 1 (Group B1; N=27) or SYM-1219 on Day 1 and EE2/NET on Day 2 (Group B2; N=27). Serial blood samples were drawn to measure plasma concentrations of EE2/NET. […] Safety was evaluated by recording of adverse events, vital signs, ECGs and standard laboratory tests.

[3] = Safety evaluation (adverse events, vital signs, ECGs, laboratory tests) after single 1 g or 2 g dose of SYM-1219; assay type: in vivo, human; settings: single 1 g or 2 g oral dose; healthy female subjects
Experimental: Methods: 28 healthy female subjects (14/group) ages 18-65 years were randomized to receive a single oral dose of either 1 or 2 grams of SYM-1219, mixed into 4 oz. of applesauce. […] Safety was evaluated by recording adverse events, vital signs, ECGs and laboratory tests.

[4] = system: bacterial vaginosis; test: Phase 2 double-blind placebo-controlled study, clinical outcome responder (clinical cure) in women with bacterial vaginosis; assay type: in vivo, human
Description: as §1

Cc1ncc([N+](=O)[O-])n1CC(C)O (stereo not shown) [SYM-1219, 1-(2-hydroxypropyl)-2-methyl-5-nitromidazole]
Acute sinusitis: Events ([1]; female, human): 0 n | Acute sinusitis: Subjects ([1]; female, human): 0 n | Adverse Event: Abdominal pain ([1]; female, human): 0% | Adverse Event: Diarrhea ([1]; female, human): 0% | Adverse Event: Fungal Infection ([1]; female, human): 3% | Adverse Event: Headache ([1]; female, human): 1% | Adverse Event: Metallic/Unusual Taste ([1]; female, human): 1% | Adverse Event: Nausea ([1]; female, human): 1% | Adverse Event: Vulva/Vaginal Irritation ([1]; female, human): 1% | Alanine aminotransferase increased: Events ([1]; female, human): 1 n | Any Adverse Event, Overall: Events ([1]; female, human): 19 n | Aspartate aminotransferase increased: Events ([1]; female, human): 1 n | Candida infection: Events ([1]; female, human): 0 n | Candida infection: Subjects ([1]; female, human): 0 n | Chlamydial infection: Events ([1]; female, human): 1 n | Chromaturia: Events ([1]; female, human): 1 n | Dizziness: Events ([1]; female, human): 1 n | Dysgeusia: Events ([1]; female, human): 1 n | Fungal infection: Events ([1]; female, human): 0 n | Fungal infection: Subjects ([1]; female, human): 0 n | Gastrointestinal disorders, Overall: Events ([1]; female, human): 1 n | Gonorrhoea: Events ([1]; female, human): 1 n | Headache: Events ([1]; female, human): 1 n | Infections and infestations, Overall: Events ([1]; female, human): 7 n | Injury, poisoning and procedural complications, Overall: Events ([1]; female, human): 1 n | Investigations, Overall: Events ([1]; female, human): 2 n | Nausea: Events ([1]; female, human): 1 n | Nervous system disorders, Overall: Events ([1]; female, human): 3 n | Oropharyngeal pain: Events ([1]; female, human): 1 n | Renal and urinary disorders, Overall: Events ([1]; female, human): 1 n | Reproductive system and breast disorders, Overall: Events ([1]; female, human): 3 n | Respiratory, thoracic and mediastinal disorders, Overall: Events ([1]; female, human): 1 n | Surgical and medical procedures, Overall: Events ([1]; female, human): 0 n | Surgical and medical procedures, Overall: Subjects ([1]; female, human): 0 n | Thermal burn: Events ([1]; female, human): 1 n | Tooth abscess: Events ([1]; female, human): 1 n | Tooth extraction: Events ([1]; female, human): 0 n | Tooth extraction: Subjects ([1]; female, human): 0 n | Tooth infection: Events ([1]; female, human): 1 n | Upper respiratory tract infection: Events ([1]; female, human): 0 n | Upper respiratory tract infection: Subjects ([1]; female, human): 0 n | Urinary tract infection: Events ([1]; female, human): 1 n | Vaginal discharge: Events ([1]; female, human): 1 n | Vaginal odor: Events ([1]; female, human): 1 n | Vulvovaginal mycotic infection: Events ([1]; female, human): 2 n | Vulvovaginal pruritus: Events ([1]; female, human): 1 n | tolerability [1]: surprisingly well tolerated | changes in vital signs, ECG or laboratory parameters [2]: no significant changes | safety and tolerability [2]: safe and well-tolerated | changes in vital signs, electrocardiogram (ECG) or laboratory parameters [3]: no significant changes | safety and tolerability [3]: safe and well-tolerated | severity and outcome of all adverse events [3]: mild and resolved without sequelae | effectiveness in treating bacterial vaginosis ([4]; 2 gram single dose, subjects with 3 or fewer as well as 4 or more episodes in the past 12 months): effective | effectiveness for bacterial vaginosis compared with placebo ([4]; 2 gram single-dose): effective | clinical cure rate ([4]; single 2 g oral dose, 21-30 days after treatment): 67.7%
